Experimental data reported in ChEMBL document CHEMBL1157116, “Synthesis of novel benzocoumarin derivatives as lipid lowering agents” (2010).

Assays:
Format in all cases: functional
Set-up in all cases: scale not given: the % may be the effect or the level left
[1] = Antioxidant activity assessed as inhibition of xanthine-xanthine oxidase generated superoxide anion radical production assessed as formazone formation at 20 ug/ml after 30 mins by spectrophotometric analysis
Rattus norvegicus [2] = assay: Antihyperlipidemic activity in Charles Foster rat assessed as reduction of triton WR-1339-induced plasma total cholesterol level at 25 mg/kg, po after 18 hrs by spectrophotometric analysis
Rattus norvegicus [3] = assay: Antihyperlipidemic activity in Charles Foster rat assessed as reduction of triton WR-1339-induced plasma total cholesterol level at 100 mg/kg, po after 18 hrs by spectrophotometric analysis
Rattus norvegicus [4] = assay: Antihyperlipidemic activity in Charles Foster rat assessed as reduction of triton WR-1339-induced plasma phospholipid level at 100 mg/kg, po after 18 hrs by spectrophotometric analysis
Rattus norvegicus [5] = assay: Antihyperlipidemic activity in Charles Foster rat assessed as reduction of triton WR-1339-induced plasma triglyceride level at 100 mg/kg, po after 18 hrs by spectrophotometric analysis
Rattus norvegicus [6] = assay: Antihyperlipidemic activity in Charles Foster rat assessed as reduction of triton WR-1339-induced plasma post heparin lipolytic activity at 100 mg/kg, po after 18 hrs by spectrophotometric analysis
[7] = Antioxidant activity assessed as inhibition of xanthine-xanthine oxidase generated superoxide anion radical production assessed as formazone formation at 100 ug/ml after 30 mins by spectrophotometric analysis
[8] = Antioxidant activity assessed as inhibition non-enzymatic reactants generated hydroxyl radical production at 100 ug/ml after 90 mins by spectrophotometry
[9] = Antioxidant activity assessed as inhibition microsomal lipid peroxidation assessed as malondialdehyde formation at 100 ug/ml by thiobarbituric acid test; details: Microsome
Rattus norvegicus [10] = assay: Antihyperlipidemic activity in Charles Foster rat assessed as reduction of triton WR-1339-induced plasma phospholipid level at 25 mg/kg, po after 18 hrs by spectrophotometric analysis
Rattus norvegicus [11] = assay: Antihyperlipidemic activity in Charles Foster rat assessed as reduction of triton WR-1339-induced plasma triglyceride level at 25 mg/kg, po after 18 hrs by spectrophotometric analysis
[12] = Antioxidant activity assessed as inhibition non-enzymatic reactants generated hydroxyl radical production at 20 ug/ml after 90 mins by spectrophotometry
[13] = Antioxidant activity assessed as inhibition microsomal lipid peroxidation assessed as malondialdehyde formation at 20 ug/ml by thiobarbituric acid test; details: Microsome

Question: Which Activity [1] does the source give for `Oc1ncnc2[nH]ncc12` here?
Answer: The Activity was 86%.

Question: What does the source list for `Cc1cc(=O)oc2c1ccc1c(OCc3ccccc3)cccc12`?
Answer: Activity (Rattus norvegicus [2]): 26%; Activity (Rattus norvegicus [3]): 28%; Activity (Rattus norvegicus [4]): 29%; Activity (Rattus norvegicus [5]): 28%; Activity (Rattus norvegicus [6]): 18%; Activity [7]: 40%; Activity [8]: 41%; Activity [9]: 38%; Activity (Rattus norvegicus [10]): 24%; Activity (Rattus norvegicus [11]): 23%

Question: For `OC[C@@H](O)[C@@H](O)[C@H](O)[C@H](O)CO`, which Activity [12] is on record?
Answer: The Activity was 48%.

Question: With `Cc1c(C)c2c(c(C)c1O)CC[C@@](C)(CCC[C@H](C)CCC[C@H](C)CCCC(C)C)O2` as the compound, how does the Activity [13] read?
Answer: Its Activity is 45%.

Question: Which results are given for `Cc1ccc(C)c(OCCCC(C)(C)C(=O)O)c1` [GEMFIBROZIL]?
Answer: Activity (Rattus norvegicus [3]): 36%; Activity (Rattus norvegicus [4]): 35%; Activity (Rattus norvegicus [5]): 31%; Activity (Rattus norvegicus [6]): 24%

Question: Which Activity (Rattus norvegicus [3]) does the source give for `Cc1cc(=O)oc2c1ccc1c(OC(C)c3ccccc3)cccc12` (stereo not drawn) here?
Answer: Its Activity is 23%.

Question: What about the Activity (Rattus norvegicus [4]) of the same compound?
Answer: The Activity was 26%.

Question: And the Activity (Rattus norvegicus [5])?
Answer: Its Activity is 22%.

Question: With `CCOC(=O)COc1cccc2c1ccc1c(C)cc(=O)oc12` as the compound, how does the Activity [7] read?
Answer: The Activity was 28%.

Question: And the Activity [8]?
Answer: The Activity was 38%.

Question: And the Activity [9]?
Answer: Its Activity is 37%.
